The text below walks through data of ChEMBL document CHEMBL1148617, “Design, synthesis, and structure-activity relationships of 1-,3-,8-, and 9-substituted-9-deazaxanthines at the human A2B adenosine receptor” (J Med Chem, 2006).

By Ki is commonly meant the dissociation constant of the complex between target and ligand, obtained from inhibition or displacement. Usually inhibition stands for the drop in the measured response relative to a control, in per cent.

In the first assay the target is T1, Adenosine receptor A2a (Homo sapiens, UniProt P29274).
T1 sequence (P29274 whole entry): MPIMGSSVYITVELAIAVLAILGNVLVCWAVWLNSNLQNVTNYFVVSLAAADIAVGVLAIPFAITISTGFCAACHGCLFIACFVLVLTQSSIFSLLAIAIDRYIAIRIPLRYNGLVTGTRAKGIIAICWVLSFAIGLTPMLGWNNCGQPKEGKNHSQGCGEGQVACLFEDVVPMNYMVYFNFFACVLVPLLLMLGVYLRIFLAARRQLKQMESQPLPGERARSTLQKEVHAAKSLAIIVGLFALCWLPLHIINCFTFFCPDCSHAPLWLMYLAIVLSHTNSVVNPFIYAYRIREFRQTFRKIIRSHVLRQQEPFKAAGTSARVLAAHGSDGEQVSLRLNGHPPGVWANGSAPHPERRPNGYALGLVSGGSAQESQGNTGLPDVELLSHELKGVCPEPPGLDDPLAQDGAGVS
Assay: not given
Consider `CCCn1c(=O)c2[nH]c(-c3ccc(OCC(=O)Nc4ccc(I)cc4)cc3)cc2n(CCC)c1=O`, for which affinity was put at a Ki of 158 nM.

Regarding `Cn1c(=O)c2[nH]c(-c3ccc(OCC(=O)NCc4ccccc4)cc3)cc2n(C)c1=O`, the affinity, expressed as Ki, was 182 nM.

Consider `CCCn1c(=O)c2[nH]c(-c3ccc(OCC(=O)Nc4ccccc4)cc3)cc2n(CCC)c1=O`, for which the Ki was 224 nM.

With `COc1cc(-c2cc3c([nH]2)c(=O)n(C)c(=O)n3C)ccc1OCC(=O)Nc1ccc(C#N)cc1`, the Ki is 575 nM.

As for `CCCn1c(=O)c2[nH]c(-c3ccc(OCC(=O)Nc4ccc(OC)nc4)cc3)cc2n(CCC)c1=O`, the Ki was 107 nM.

For the compound `CCCn1c(=O)c2[nH]c(-c3ccc(OCC(=O)Nc4ccc(Br)cc4)cc3)nc2n(CCC)c1=O`, the inhibitory constant (Ki) was 1660 nM.

With `CCCn1c(=O)c2[nH]c(-c3ccc(OCC(=O)Nc4ccc([N+](C)(C)C)cc4)cc3)cc2n(CCC)c1=O`, the Ki was 708 nM.

In the case of `CCCn1c(=O)c2[nH]c(-c3ccc(OCC(=O)Nc4ccc(C(C)=O)cc4)cc3)c(Cl)c2n(CCC)c1=O`, the affinity corresponds to a Ki of 85.1 nM.

Take `CCCn1c(=O)c2[nH]c(-c3ccc(OCC(=O)Nc4ccccc4Cl)cc3)c(Cl)c2n(CCC)c1=O`: affinity was put at a Ki of 263 nM.

The next assay deals with T1, Adenosine receptor A2a. The assay can be described thus: Displacement of [3H]ZM-241385 from recombinant human adenosine A2A receptor expressed in HeLa cells at 0.1 uM. (Displacement assays read how much labelled ligand stays bound in the presence of the test substance.)
`Cn1c(=O)c2[nH]c(-c3ccc(OCC(=O)Nc4ccccc4)cc3)cc2n(C)c1=O`: the inhibition came out at 10%.

As to `CCCn1c(=O)c2[nH]c(-c3ccc(OCC(=O)Nc4ccc(I)cc4)cc3)cc2n(CCC)c1=O`, the inhibition is 57%.

Consider `Cn1c(=O)c2[nH]c(-c3ccc(OCC(=O)NCc4ccccc4)cc3)cc2n(C)c1=O`, for which the inhibition was found to be 25%.

With `CCCn1c(=O)c2[nH]c(-c3ccc(OCC(=O)Nc4ccccc4)cc3)cc2n(CCC)c1=O`, the inhibition turned out to be 6%.

For `COc1cc(-c2cc3c([nH]2)c(=O)n(C)c(=O)n3C)ccc1OCC(=O)Nc1ccc(C#N)cc1`, the inhibition was determined as 5%.

With `CCCn1c(=O)c2[nH]c(-c3ccc(OCC(=O)Nc4ccc(OC)nc4)cc3)cc2n(CCC)c1=O`, the inhibition stood at 50%.

As for `CCCn1c(=O)c2[nH]c(-c3ccc(OCC(=O)Nc4ccc([N+](C)(C)C)cc4)cc3)cc2n(CCC)c1=O`, the inhibition was 8%.

`CCCn1c(=O)c2[nH]c(-c3ccc(OCC(=O)Nc4ccc(C(C)=O)cc4)cc3)c(Cl)c2n(CCC)c1=O`: the inhibition turned out to be 21%.

Consider `CCCn1c(=O)c2[nH]c(-c3ccc(OCC(=O)Nc4ccccc4Cl)cc3)c(Cl)c2n(CCC)c1=O`, for which the inhibition came to 23%.

For another assay, the target named is T2, Adenosine receptor A2b (Homo sapiens, UniProt P29275).
T2 sequence (P29275 whole entry): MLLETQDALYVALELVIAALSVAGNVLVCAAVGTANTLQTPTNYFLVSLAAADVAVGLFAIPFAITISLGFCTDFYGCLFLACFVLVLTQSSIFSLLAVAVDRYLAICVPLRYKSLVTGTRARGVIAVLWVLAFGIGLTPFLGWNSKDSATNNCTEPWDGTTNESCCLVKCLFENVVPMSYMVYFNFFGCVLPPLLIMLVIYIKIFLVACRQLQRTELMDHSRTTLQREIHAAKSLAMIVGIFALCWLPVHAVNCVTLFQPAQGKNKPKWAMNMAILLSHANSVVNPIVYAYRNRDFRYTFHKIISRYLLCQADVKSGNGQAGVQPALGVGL
Assay: not given
Compound `CCCn1c(=O)c2[nH]c(-c3ccc(OCC(=O)Nc4ccc(I)cc4)cc3)cc2n(CCC)c1=O` showed a Ki of 19.5 nM.

The compound `Cn1c(=O)c2[nH]c(-c3ccc(OCC(=O)NCc4ccccc4)cc3)cc2n(C)c1=O` gave a Ki of 51.3 nM.

As to `CCCn1c(=O)c2[nH]c(-c3ccc(OCC(=O)Nc4ccccc4)cc3)cc2n(CCC)c1=O`, the Ki was 9.33 nM.

Regarding `COc1cc(-c2cc3c([nH]2)c(=O)n(C)c(=O)n3C)ccc1OCC(=O)Nc1ccc(C#N)cc1`, affinity was put at a Ki of 214 nM.

`CCCn1c(=O)c2[nH]c(-c3ccc(OCC(=O)Nc4ccc(OC)nc4)cc3)cc2n(CCC)c1=O` gave a Ki of 10.7 nM.

`CCCn1c(=O)c2[nH]c(-c3ccc(OCC(=O)Nc4ccc(Br)cc4)cc3)nc2n(CCC)c1=O`: the Ki was 2.4 nM.

Regarding `CCCn1c(=O)c2[nH]c(-c3ccc(OCC(=O)Nc4ccc([N+](C)(C)C)cc4)cc3)cc2n(CCC)c1=O`, the affinity, expressed as Ki, was 91.2 nM.

Take `CCCn1c(=O)c2[nH]c(-c3ccc(OCC(=O)Nc4ccc(C(C)=O)cc4)cc3)c(Cl)c2n(CCC)c1=O`: the affinity corresponds to a Ki of 52.5 nM.

The compound `CCCn1c(=O)c2[nH]c(-c3ccc(OCC(=O)Nc4ccccc4Cl)cc3)c(Cl)c2n(CCC)c1=O` showed an inhibitory constant (Ki) of 83.2 nM.

Another assay deals with T3, Adenosine receptor A2b (Homo sapiens) (UniProt P29275).
T3 sequence (whole entry): T2 sequence (P29275 whole entry)
The assay can be described thus: Displacement of [3H]DPCPX from recombinant human adenosine A2B receptor expressed in HEK293 cells at 0.1 uM. The assay is classed as cell-based.
Consider `Cn1c(=O)c2[nH]c(-c3ccc(OCC(=O)Nc4ccccc4)cc3)cc2n(C)c1=O`, for which the inhibition was 91%.

Regarding `CCCn1c(=O)c2[nH]c(-c3ccc(OCC(=O)Nc4ccc(I)cc4)cc3)cc2n(CCC)c1=O`, the inhibition turned out to be 80%.

As for `Cn1c(=O)c2[nH]c(-c3ccc(OCC(=O)NCc4ccccc4)cc3)cc2n(C)c1=O`, the inhibition is 66%.

Consider `CCCn1c(=O)c2[nH]c(-c3ccc(OCC(=O)Nc4ccccc4)cc3)cc2n(CCC)c1=O`, for which the inhibition is 92%.

Take `COc1cc(-c2cc3c([nH]2)c(=O)n(C)c(=O)n3C)ccc1OCC(=O)Nc1ccc(C#N)cc1`: the inhibition is 28%.

As to `CCCn1c(=O)c2[nH]c(-c3ccc(OCC(=O)Nc4ccc(OC)nc4)cc3)cc2n(CCC)c1=O`, the inhibition stood at 84%.

Take `CCCn1c(=O)c2[nH]c(-c3ccc(OCC(=O)Nc4ccc([N+](C)(C)C)cc4)cc3)cc2n(CCC)c1=O`: the inhibition turned out to be 52%.

On to `CCCn1c(=O)c2[nH]c(-c3ccc(OCC(=O)Nc4ccc(C(C)=O)cc4)cc3)c(Cl)c2n(CCC)c1=O`, for which the inhibition is 43%.

`CCCn1c(=O)c2[nH]c(-c3ccc(OCC(=O)Nc4ccccc4Cl)cc3)c(Cl)c2n(CCC)c1=O`: the inhibition was determined as 44%.

The target in the next assay is T3, Adenosine receptor A2b (Homo sapiens). The assay is described as follows: Displacement of [3H]DPCPX from recombinant human adenosine A2B receptor expressed in HEK293 cells at 0.01 uM.
On to `Cn1c(=O)c2[nH]c(-c3ccc(OCC(=O)Nc4ccccc4)cc3)cc2n(C)c1=O`, for which the inhibition was found to be 44%.

Regarding `CCCn1c(=O)c2[nH]c(-c3ccc(OCC(=O)Nc4ccc(I)cc4)cc3)cc2n(CCC)c1=O`, the inhibition is 30%.

On to `Cn1c(=O)c2[nH]c(-c3ccc(OCC(=O)NCc4ccccc4)cc3)cc2n(C)c1=O`, for which the inhibition is 12%.

Consider `CCCn1c(=O)c2[nH]c(-c3ccc(OCC(=O)Nc4ccccc4)cc3)cc2n(CCC)c1=O`, for which the inhibition was found to be 47%.

For the compound `COc1cc(-c2cc3c([nH]2)c(=O)n(C)c(=O)n3C)ccc1OCC(=O)Nc1ccc(C#N)cc1`, the inhibition amounted to 10%.

In the case of `CCCn1c(=O)c2[nH]c(-c3ccc(OCC(=O)Nc4ccc(OC)nc4)cc3)cc2n(CCC)c1=O`, the inhibition is 41%.

In the case of `CCCn1c(=O)c2[nH]c(-c3ccc(OCC(=O)Nc4ccc([N+](C)(C)C)cc4)cc3)cc2n(CCC)c1=O`, the inhibition stood at 4%.

As to `CCCn1c(=O)c2[nH]c(-c3ccc(OCC(=O)Nc4ccc(C(C)=O)cc4)cc3)c(Cl)c2n(CCC)c1=O`, the inhibition amounted to 8%.

In the case of `CCCn1c(=O)c2[nH]c(-c3ccc(OCC(=O)Nc4ccccc4Cl)cc3)c(Cl)c2n(CCC)c1=O`, the inhibition came out at 5%.

The next assay has as its target T4, Adenosine receptor A3 (Homo sapiens, UniProt P0DMS8).
T4 sequence (P0DMS8 whole entry): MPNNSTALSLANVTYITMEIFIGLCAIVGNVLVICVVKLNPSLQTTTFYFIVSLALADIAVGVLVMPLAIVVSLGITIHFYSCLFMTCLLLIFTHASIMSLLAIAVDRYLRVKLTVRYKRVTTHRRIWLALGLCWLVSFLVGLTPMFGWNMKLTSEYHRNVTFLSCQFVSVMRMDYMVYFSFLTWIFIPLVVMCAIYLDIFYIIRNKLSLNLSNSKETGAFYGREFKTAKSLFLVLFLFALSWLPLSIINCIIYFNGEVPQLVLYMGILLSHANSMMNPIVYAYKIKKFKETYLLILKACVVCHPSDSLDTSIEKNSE
Assay: not given
Take `CCCn1c(=O)c2[nH]c(-c3ccc(OCC(=O)Nc4ccc(Br)cc4)cc3)nc2n(CCC)c1=O`: the affinity, expressed as Ki, was 2340 nM.

In the next assay the target is T5, Adenosine receptor A1 (Homo sapiens, UniProt P30542).
T5 sequence (P30542 whole entry): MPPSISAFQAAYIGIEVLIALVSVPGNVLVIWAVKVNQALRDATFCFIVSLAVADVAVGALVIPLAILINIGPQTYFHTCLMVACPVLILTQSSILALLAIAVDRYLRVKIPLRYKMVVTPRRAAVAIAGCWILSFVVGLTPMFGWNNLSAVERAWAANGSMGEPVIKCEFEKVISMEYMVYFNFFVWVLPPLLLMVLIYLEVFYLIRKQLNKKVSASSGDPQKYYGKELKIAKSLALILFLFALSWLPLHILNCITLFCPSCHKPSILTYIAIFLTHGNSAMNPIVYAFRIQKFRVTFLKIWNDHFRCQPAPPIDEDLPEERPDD
Assay: not given
Consider `CCCn1c(=O)c2[nH]c(-c3ccc(OCC(=O)Nc4ccc(F)cc4)cc3)nc2n(CCC)c1=O`, for which the affinity corresponds to a Ki of 18.2 nM.

`Cn1c(=O)c2[nH]c(-c3ccc(OCC(=O)Nc4ccccc4)cc3)cc2n(C)c1=O` gave an inhibitory constant (Ki) of 240 nM.
